# In patent US10335503B2, “Compound that specifically binds to AMPA receptor” (Public University Corporation Yokohama City University, priority 2015, dated 2019):
# What was measured:
# β1-Adrenergic = β1-Adrenergic (Homo sapiens, UniProt P08588); assay: Receptor binding panel: β1-Adrenergic; conditions: K-2 at 1 × 10^−7 mol/L
# Androgen = Androgen (Homo sapiens, UniProt P10275); assay: Receptor binding panel: Androgen; conditions: K-2 at 1 × 10^−7 mol/L
# Angiotensin AT1 = Angiotensin AT1 (Homo sapiens, UniProt P30556); assay: Receptor binding panel: Angiotensin AT1; conditions: K-2 at 1 × 10^−7 mol/L
# Angiotensin AT2 = Angiotensin AT2 (Homo sapiens, UniProt P50052); assay: Receptor binding panel: Angiotensin AT2; conditions: K-2 at 1 × 10^−7 mol/L
# [1] = system: Ca channel (Type L, Dihydropyridine); assay: Receptor binding panel: Ca channel (Type L, Dihydropyridine); conditions: K-2 at 1 × 10^−7 mol/L
# Ca channel (Type N) = Ca channel (Type N) (Homo sapiens, UniProt Q00975); assay: Receptor binding panel: Ca channel (Type N); conditions: K-2 at 1 × 10^−7 mol/L
# Dopamine D1 = Dopamine D1 (Homo sapiens, UniProt P21728); assay: Receptor binding panel: Dopamine D1; conditions: K-2 at 1 × 10^−7 mol/L
# Endothelin ETB = Endothelin ETB (Homo sapiens, UniProt P24530); assay: Receptor binding panel: Endothelin ETB; conditions: K-2 at 1 × 10^−7 mol/L
# GABA A (Agonist site) = assay: Receptor binding panel: GABA A (Agonist site); conditions: K-2 at 1 × 10^−7 mol/L
# GABA B = GABA B (Homo sapiens, UniProt Q9UBS5); assay: Receptor binding panel: GABA B; conditions: K-2 at 1 × 10^−7 mol/L
# Glutamate (AMPA) = assay: Receptor binding panel: Glutamate (AMPA); conditions: K-2 at 1 × 10^−7 mol/L
# [2] = system: Glutamate (NMDA phencyclidine site); assay: Receptor binding panel: Glutamate (NMDA phencyclidine site); conditions: K-2 at 1 × 10^−7 mol/L
# Histamine H2 = Histamine H2 (Homo sapiens, UniProt P25021); assay: Receptor binding panel: Histamine H2; conditions: K-2 at 1 × 10^−7 mol/L
# K Channel KATP = assay: Receptor binding panel: K Channel KATP; conditions: K-2 at 1 × 10^−7 mol/L
# Leukotriene B4 = assay: Receptor binding panel: Leukotriene B4; conditions: K-2 at 1 × 10^−7 mol/L
# Leukotriene D4 = assay: Receptor binding panel: Leukotriene D4; conditions: K-2 at 1 × 10^−7 mol/L
# Muscarinic M1 = Muscarinic M1 (Homo sapiens, UniProt P11229); assay: Receptor binding panel: Muscarinic M1; conditions: K-2 at 1 × 10^−7 mol/L
# Muscarinic M3 = Muscarinic M3 (Homo sapiens, UniProt P20309); assay: Receptor binding panel: Muscarinic M3; conditions: K-2 at 1 × 10^−7 mol/L
# Opiate δ = Opiate δ (Homo sapiens, UniProt P41143); assay: Receptor binding panel: Opiate δ; conditions: K-2 at 1 × 10^−7 mol/L
# Opiate κ = Opiate κ (Homo sapiens, UniProt P41145); assay: Receptor binding panel: Opiate κ; conditions: K-2 at 1 × 10^−7 mol/L
# Serotonin 5HT1A = Serotonin 5HT1A (Homo sapiens, UniProt P08908); assay: Receptor binding panel: Serotonin 5HT1A; conditions: K-2 at 1 × 10^−7 mol/L
# AMPA receptor = assay: Biochemical experiment: biotinylation and quantitative Western blot of AMPA receptor after administration to living rat; assay type: in vivo
# Protocol: In the LC-MS/MS experiment, all of the synthesized compounds were dissolved in 100% DMSO so as to have a concentration of 2.5 mM, diluted with physiological saline water immediately before administration (PEPA (1.2 pmol/g), M-1 (12 pmol/g), K-2 (12 pmol/g), M-3 (60 pmol/g), and M-2 (240 pmol/g)), and administered by the parenteral route. In the electrophysiological experiment, PEPA and K-2 were dissolved in 100% DMSO so as to have a concentration of 150 mM, diluted with ACSF as a reflux liquid immediately before the experiment so as to have a concentration of 150 μM and then used. In the biochemical experiment and the PET blocking experiment, K-2 was dissolved in 50% DMSO so as to have a concentration of 2.5 mM and 25 mM, and then administered to a rat at an amount of administration of 1 μl/weight (g) by the parenteral route so as to be 0.5 mg/kg and 5 mg/kg.
# The LC-MS/MS experiment and the biochemical experiment were performed after a rat was allowed to get to sleep by inhalation of isoflurane while anesthesia was maintained using a dedicate carburetor at a concentration of 1.5%. […] In the LC-MS/MS experiment, the hippocampus region was collected in a thickness of approximately 2 mm from the extracted whole brain using Brain matrix (ASI instruments, U.S.), the tissue weight thereof was measured, and then the hippocampus region was put into a 1.5-ml conical tube. […]
# Chain of Dopamine D1 (P21728 whole entry): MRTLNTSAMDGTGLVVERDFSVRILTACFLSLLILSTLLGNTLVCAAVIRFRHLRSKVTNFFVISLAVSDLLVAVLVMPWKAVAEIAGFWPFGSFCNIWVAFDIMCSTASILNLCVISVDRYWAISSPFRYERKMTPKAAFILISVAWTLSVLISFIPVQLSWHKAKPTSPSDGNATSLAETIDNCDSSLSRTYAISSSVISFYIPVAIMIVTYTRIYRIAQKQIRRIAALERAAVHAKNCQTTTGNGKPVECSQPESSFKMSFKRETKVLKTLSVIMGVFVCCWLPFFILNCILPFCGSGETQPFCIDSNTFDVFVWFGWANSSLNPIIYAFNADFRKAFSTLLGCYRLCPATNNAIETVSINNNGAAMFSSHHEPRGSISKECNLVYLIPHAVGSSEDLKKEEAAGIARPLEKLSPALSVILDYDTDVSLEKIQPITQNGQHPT
# Chain of Opiate δ (P41143 whole entry): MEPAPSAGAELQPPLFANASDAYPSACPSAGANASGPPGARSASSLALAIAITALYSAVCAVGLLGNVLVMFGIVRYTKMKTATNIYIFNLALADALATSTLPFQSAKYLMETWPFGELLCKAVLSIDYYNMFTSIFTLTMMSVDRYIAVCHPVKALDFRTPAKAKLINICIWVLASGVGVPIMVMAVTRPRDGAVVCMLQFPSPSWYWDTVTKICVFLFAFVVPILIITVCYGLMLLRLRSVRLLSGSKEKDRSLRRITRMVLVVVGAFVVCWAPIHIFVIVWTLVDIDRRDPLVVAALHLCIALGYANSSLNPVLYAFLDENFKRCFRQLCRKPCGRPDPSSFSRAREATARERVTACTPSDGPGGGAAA
# Chain of Opiate κ (P41145 whole entry): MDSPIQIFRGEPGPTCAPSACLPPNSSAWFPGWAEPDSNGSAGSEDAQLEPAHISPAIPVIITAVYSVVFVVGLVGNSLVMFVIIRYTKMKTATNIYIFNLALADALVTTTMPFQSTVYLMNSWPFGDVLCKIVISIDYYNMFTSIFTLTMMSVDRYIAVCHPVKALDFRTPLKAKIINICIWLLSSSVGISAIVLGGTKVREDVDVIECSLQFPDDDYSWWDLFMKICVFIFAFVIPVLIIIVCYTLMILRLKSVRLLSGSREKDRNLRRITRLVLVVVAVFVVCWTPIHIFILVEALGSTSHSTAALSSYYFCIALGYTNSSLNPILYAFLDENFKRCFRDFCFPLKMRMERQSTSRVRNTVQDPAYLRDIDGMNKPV
# Chain of GABA B (Q9UBS5 15-961 limits assumed): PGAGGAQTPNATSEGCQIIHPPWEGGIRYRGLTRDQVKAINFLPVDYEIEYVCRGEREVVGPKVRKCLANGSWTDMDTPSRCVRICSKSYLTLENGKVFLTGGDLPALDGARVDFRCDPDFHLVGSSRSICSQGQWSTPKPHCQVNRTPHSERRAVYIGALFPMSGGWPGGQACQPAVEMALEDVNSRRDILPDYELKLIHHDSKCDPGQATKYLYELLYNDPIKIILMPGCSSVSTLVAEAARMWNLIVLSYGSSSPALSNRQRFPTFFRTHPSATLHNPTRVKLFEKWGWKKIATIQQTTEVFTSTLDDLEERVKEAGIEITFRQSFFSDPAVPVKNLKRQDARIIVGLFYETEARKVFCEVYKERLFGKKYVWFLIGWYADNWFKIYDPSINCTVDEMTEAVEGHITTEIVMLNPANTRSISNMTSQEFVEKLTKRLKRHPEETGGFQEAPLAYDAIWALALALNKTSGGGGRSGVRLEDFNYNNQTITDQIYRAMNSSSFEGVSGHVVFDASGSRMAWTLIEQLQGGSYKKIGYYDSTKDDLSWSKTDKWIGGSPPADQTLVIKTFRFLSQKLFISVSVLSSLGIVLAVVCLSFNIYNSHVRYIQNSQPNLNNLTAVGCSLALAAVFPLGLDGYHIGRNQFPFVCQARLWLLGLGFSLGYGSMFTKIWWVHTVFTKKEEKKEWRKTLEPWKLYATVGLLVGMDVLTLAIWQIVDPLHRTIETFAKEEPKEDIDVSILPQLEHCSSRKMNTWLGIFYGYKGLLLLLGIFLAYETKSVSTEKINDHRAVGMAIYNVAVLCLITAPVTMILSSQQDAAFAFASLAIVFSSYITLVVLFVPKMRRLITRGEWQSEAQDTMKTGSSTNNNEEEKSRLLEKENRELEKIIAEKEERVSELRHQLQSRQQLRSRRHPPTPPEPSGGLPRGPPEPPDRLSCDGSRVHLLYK
# Chain of GABA B (O75899 41-941 partner limits assumed): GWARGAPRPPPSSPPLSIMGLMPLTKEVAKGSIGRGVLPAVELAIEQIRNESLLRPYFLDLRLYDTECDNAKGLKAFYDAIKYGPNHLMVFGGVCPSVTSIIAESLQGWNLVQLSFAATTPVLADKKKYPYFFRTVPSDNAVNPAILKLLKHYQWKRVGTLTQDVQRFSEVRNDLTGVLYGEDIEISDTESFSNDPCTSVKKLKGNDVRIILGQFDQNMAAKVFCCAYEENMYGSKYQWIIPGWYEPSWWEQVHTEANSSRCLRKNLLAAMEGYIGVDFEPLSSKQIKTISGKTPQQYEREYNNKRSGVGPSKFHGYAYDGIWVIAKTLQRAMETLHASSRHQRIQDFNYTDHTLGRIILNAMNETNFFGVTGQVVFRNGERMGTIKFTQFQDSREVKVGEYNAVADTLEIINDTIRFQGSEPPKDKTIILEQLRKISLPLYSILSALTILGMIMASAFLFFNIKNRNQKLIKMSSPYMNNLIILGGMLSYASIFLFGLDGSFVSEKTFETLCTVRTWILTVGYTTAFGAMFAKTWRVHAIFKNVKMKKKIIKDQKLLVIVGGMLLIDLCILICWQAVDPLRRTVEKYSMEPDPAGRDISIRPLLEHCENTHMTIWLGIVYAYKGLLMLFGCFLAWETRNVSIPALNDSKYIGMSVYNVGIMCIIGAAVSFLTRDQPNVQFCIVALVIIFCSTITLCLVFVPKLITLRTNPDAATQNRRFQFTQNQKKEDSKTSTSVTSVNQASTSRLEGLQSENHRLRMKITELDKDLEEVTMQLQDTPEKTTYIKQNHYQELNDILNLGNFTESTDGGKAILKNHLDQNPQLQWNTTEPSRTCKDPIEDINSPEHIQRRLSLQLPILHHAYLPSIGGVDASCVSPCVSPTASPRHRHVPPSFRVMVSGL
# Chain of Histamine H2 (P25021 whole entry): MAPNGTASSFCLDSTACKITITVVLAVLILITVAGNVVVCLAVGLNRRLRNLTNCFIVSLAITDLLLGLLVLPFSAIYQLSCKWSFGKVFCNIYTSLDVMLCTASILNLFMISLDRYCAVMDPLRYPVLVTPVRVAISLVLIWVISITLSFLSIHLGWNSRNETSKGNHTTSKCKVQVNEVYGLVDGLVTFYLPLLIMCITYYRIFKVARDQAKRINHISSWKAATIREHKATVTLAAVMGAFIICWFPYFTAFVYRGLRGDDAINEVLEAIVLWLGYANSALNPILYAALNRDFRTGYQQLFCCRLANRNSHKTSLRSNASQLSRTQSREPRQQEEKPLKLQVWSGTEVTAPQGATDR
# Chain of Muscarinic M3 (P20309 whole entry): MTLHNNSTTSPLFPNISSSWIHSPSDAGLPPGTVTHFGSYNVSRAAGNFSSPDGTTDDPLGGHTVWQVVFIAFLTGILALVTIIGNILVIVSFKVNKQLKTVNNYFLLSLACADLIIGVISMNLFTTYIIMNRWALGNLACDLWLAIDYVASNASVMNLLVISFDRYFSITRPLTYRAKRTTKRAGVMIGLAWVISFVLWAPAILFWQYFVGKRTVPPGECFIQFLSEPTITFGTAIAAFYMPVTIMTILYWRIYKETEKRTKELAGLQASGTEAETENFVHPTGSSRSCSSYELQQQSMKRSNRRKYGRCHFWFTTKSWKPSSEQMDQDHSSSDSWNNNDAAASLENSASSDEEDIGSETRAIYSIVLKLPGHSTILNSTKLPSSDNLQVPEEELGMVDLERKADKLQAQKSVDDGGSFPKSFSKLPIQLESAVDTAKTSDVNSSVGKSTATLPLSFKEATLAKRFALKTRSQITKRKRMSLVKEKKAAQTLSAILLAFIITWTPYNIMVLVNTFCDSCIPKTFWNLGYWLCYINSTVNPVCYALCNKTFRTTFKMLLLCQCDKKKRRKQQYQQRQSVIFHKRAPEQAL
# Chain of Serotonin 5HT1A (P08908 whole entry): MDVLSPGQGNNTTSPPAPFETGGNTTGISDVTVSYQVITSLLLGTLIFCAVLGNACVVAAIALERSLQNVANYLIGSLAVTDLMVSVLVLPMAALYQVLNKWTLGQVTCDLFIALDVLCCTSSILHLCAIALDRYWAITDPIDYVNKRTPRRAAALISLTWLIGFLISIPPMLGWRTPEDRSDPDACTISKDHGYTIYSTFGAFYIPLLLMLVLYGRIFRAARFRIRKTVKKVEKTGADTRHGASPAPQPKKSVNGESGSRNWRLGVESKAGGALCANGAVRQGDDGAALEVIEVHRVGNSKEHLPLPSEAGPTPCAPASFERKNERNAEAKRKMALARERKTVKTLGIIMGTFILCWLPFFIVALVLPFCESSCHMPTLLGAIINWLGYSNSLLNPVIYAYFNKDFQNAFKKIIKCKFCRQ
# Chain of Angiotensin AT2 (P50052 whole entry): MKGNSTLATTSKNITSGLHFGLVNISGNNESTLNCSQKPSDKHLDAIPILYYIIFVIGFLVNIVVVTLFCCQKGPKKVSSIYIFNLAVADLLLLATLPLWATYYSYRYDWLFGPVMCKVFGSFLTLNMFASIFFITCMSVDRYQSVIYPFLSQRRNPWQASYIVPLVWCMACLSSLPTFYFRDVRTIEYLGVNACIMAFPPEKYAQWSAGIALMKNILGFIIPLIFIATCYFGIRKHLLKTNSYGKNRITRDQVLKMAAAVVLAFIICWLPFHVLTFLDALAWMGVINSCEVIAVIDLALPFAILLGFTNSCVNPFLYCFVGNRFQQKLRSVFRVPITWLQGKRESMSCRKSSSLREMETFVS
smiles,measurement,setting,value
"CN(CCSc1cc(F)c(OCC(N)=O)c(F)c1)S(=O)(=O)c1ccccc1 [K-2, {4-[2-(benzenesulfonyl-methyl-amino)-ethylsulfanil]-2,6-difluoro-phenoxy}-acetamide]",inhibition at 0.1 µM,β1-Adrenergic,0.82%
same,inhibition at 0.1 µM,Androgen,0.57%
same,inhibition at 0.1 µM,Angiotensin AT1,1.52%
same,inhibition at 0.1 µM,Angiotensin AT2,1.05%
same,Inhibition (%),[1],0.53%
same,inhibition at 0.1 µM,Ca channel (Type N),0.31%
same,inhibition at 0.1 µM,Dopamine D1,10.2%
same,inhibition at 0.1 µM,Endothelin ETB,0%
same,Inhibition (%),GABA A (Agonist site),0.38%
same,inhibition at 0.1 µM,GABA B,1.9%
same,Inhibition (%),Glutamate (AMPA),1.74%
same,Inhibition (%),[2],5.02%
same,inhibition at 0.1 µM,Histamine H2,0.79%
same,Inhibition (%),K Channel KATP,5.71%
same,Inhibition (%),Leukotriene B4,0.00%
same,Inhibition (%),Leukotriene D4,0.16%
same,inhibition at 0.1 µM,Muscarinic M1,2.24%
same,inhibition at 0.1 µM,Muscarinic M3,5.99%
same,inhibition at 0.1 µM,Opiate δ,0.3%
same,inhibition at 0.1 µM,Opiate κ,0%
same,inhibition at 0.1 µM,Serotonin 5HT1A,1.98%
same,AMPA receptor presented on the surface of the cell membrane,"AMPA receptor; 5 mg/kg of K-2, hippocampus, vs 50% DMSO",136%±14
same,change in the total amount of the AMPA receptors,"AMPA receptor; 5 mg/kg of K-2, same animal",not recognized
